ChEMBL document CHEMBL3044964, “Synthesis of novel imidazo[2,1-b][1,3,4]thiadiazoles appended to sydnone as anticancer agents” (Med Chem Res, 2013)
Values after ≈ are worked out from the molar mass of the structure shown. Active and inactive are the calls of the source. The rule behind the calls is not given here.

Legend:
Escherichia coli [1] = test: Toxicity in wild type Escherichia coli AB1157 assessed as growth inhibition at 125 ug after 24 hr by agar well diffusion method; assay type: organism-based; settings: in vivo
Escherichia coli [2] = test: Toxicity in wild type Escherichia coli AB1157 assessed as growth inhibition at 250 ug after 24 hr by agar well diffusion method; assay type: organism-based; settings: in vivo
Escherichia coli [3] = test: Toxicity in wild type Escherichia coli AB1157 assessed as growth inhibition at 2000 ug after 24 hr by agar well diffusion method; assay type: organism-based; settings: in vivo
Escherichia coli [4] = test: Toxicity in wild type Escherichia coli AB1157 assessed as growth inhibition after 24 hr by agar well diffusion method; assay type: organism-based; settings: in vivo
HT-29 = test: Cytotoxicity against Homo sapiens (human) HT-29 cells by SRB assay; assay type: functional
Escherichia coli [5] = test: Toxicity in wild type Escherichia coli AB1157 assessed as growth inhibition at 1000 ug after 24 hr by agar well diffusion method; assay type: organism-based; settings: in vivo
Escherichia coli [6] = test: Toxicity in wild type Escherichia coli AB1157 assessed as growth inhibition at 500 ug after 24 hr by agar well diffusion method; assay type: organism-based; settings: in vivo
Escherichia coli [7] = test: Induction of Escherichia coli DNA cleavage at 25 mg after 2 hr by agarose gel electrophoresis

Compound | growth inhibition (GI) (Escherichia coli [1]) | diameter of the inhibition zone (DIZ) (Escherichia coli [2]) | diameter of the inhibition zone (DIZ) (Escherichia coli [3]) | MIC (Escherichia coli [4]) | GI50 (HT-29) | LC50 (HT-29) | TGI (HT-29) | diameter of the inhibition zone (DIZ) (Escherichia coli [5]) | diameter of the inhibition zone (DIZ) (Escherichia coli [6]) | Activity (Escherichia coli [7])
O=c1oc2ccccc2cc1-c1cn2nc(-c3c([O-])[o+]nn3-c3ccccc3)sc2n1 | Non-toxic | 0 cm | 0 cm | > 2 mg | 6.3 µg/mL (≈ 14.7 µM) | > 70 µg/mL | > 30 µg/mL | 0 cm | 0 cm | 
O=c1oc2ccccc2cc1-c1cn2nc(-c3c([O-])[o+]nn3-c3ccc(Cl)cc3)sc2n1 | Non-toxic | 0 cm | 0 cm | > 2 mg | 4 µg/mL (≈ 8.62 µM) | > 80 µg/mL | < 30 µg/mL | 0 cm | 0 cm | Active
O=c1oc2ccc(Br)cc2cc1-c1cn2nc(-c3c([O-])[o+]nn3-c3ccccc3)sc2n1 | Non-toxic | 0 cm | 0 cm | > 2 mg | 5.6 µg/mL (≈ 11 µM) | > 70 µg/mL | > 30 µg/mL | 0 cm | 0 cm | 
Cc1ccc(-n2n[o+]c([O-])c2-c2nn3cc(-c4cc5cc(Br)ccc5oc4=O)nc3s2)cc1 | Non-toxic | 0 cm | 0 cm | > 2 mg | 6.1 µg/mL (≈ 11.7 µM) | > 70 µg/mL | > 30 µg/mL | 0 cm | 0 cm | 
COc1ccc(-n2n[o+]c([O-])c2-c2nn3cc(-c4cc5cc(Cl)ccc5oc4=O)nc3s2)cc1 | Non-toxic | 0 cm | 0.8 cm | 1 mg | 3.68 µg/mL (≈ 7.45 µM) | > 70 µg/mL | < 30 µg/mL | 0.5 cm | 0 cm | 
Cc1ccc(-n2n[o+]c([O-])c2-c2nn3cc(-c4cc5ccccc5oc4=O)nc3s2)cc1 | Non-toxic | 0 cm | 0 cm | > 2 mg | 4.23 µg/mL (≈ 9.54 µM) | > 80 µg/mL | < 30 µg/mL | 0 cm | 0 cm | 
O=c1oc2ccc(Cl)cc2cc1-c1cn2nc(-c3c([O-])[o+]nn3-c3ccccc3)sc2n1 | Non-toxic | 0 cm | 0 cm | > 2 mg | 7.7 µg/mL (≈ 16.6 µM) | > 80 µg/mL | > 40 µg/mL | 0 cm | 0 cm | 
COc1ccc(-n2n[o+]c([O-])c2-c2nn3cc(-c4cc5ccccc5oc4=O)nc3s2)cc1 | Non-toxic | 0 cm | 0.8 cm | 1 mg | 3.14 µg/mL (≈ 6.83 µM) | > 70 µg/mL | < 30 µg/mL | 0.5 cm | 0 cm | 
O=c1oc2ccc(Cl)cc2cc1-c1cn2nc(-c3c([O-])[o+]nn3-c3ccc(Cl)cc3)sc2n1 | Non-toxic | 0 cm | 0 cm | > 2 mg | 8 µg/mL (≈ 16.1 µM) | > 80 µg/mL | > 40 µg/mL | 0 cm | 0 cm | Active
COc1ccc(-n2n[o+]c([O-])c2-c2nn3cc(-c4cc5cc(Br)ccc5oc4=O)nc3s2)cc1 | Non-toxic | 0 cm | 0.8 cm | 1 mg | 3.04 µg/mL (≈ 5.65 µM) | > 80 µg/mL | < 30 µg/mL | 0.5 cm | 0 cm | 
STANNOUS CHLORIDE | Non-toxic | 0.3 cm | 1.5 cm | 0.25 mg |  |  |  | 0.8 cm | 0.5 cm | 
O=c1oc2ccc(Br)cc2cc1-c1cn2nc(-c3c([O-])[o+]nn3-c3ccc(Cl)cc3)sc2n1 | Non-toxic | 0 cm | 0 cm | > 2 mg | 5.25 µg/mL (≈ 9.67 µM) | > 70 µg/mL | > 40 µg/mL | 0 cm | 0 cm | 
Cc1ccc(-n2n[o+]c([O-])c2-c2nn3cc(-c4cc5cc(Cl)ccc5oc4=O)nc3s2)cc1 | Non-toxic | 0 cm | 0 cm | > 2 mg | 7.9 µg/mL (≈ 16.5 µM) | > 80 µg/mL | > 40 µg/mL | 0 cm | 0 cm | Active
